The text below walks through data of PMC2186054 (The Journal of Experimental Medicine, 1981).

Values joined by “and” are separate entries in the source; they are usually repeats but may differ in a detail not shown here. Equal values may be shown once. Some results are limits rather than exact numbers.

The subject of experiment [1] is myeloma protein CAL20 TEPC1035. As to the kind of experiment: Quantitative precipitin inhibition assay, CAL20 TEPC1035 with dextran B1498S. It counts as binding, murine. The conditions noted are these: for Relative potency: Table II, maltose = 1.0.
The target in experiment [2] is T1, myeloma protein MOPC104E (Mus musculus, UniProt P01724+P01756). As to the kind of experiment: Quantitative precipitin inhibition assay, MOPC104E. It counts as binding, BALB/c mouse. Particulars: 25 µg dextran B1498S.
For a further experiment, the system named is myeloma protein UPC102. The experiment is described as follows: Quantitative precipitin inhibition assay, UPC102. In kind it is binding, BALB/c mouse. The conditions noted are these: at 0.52 µmol; 15 µg dextran B1355S.
Experiment [3] has as its target T1, myeloma protein MOPC104E. The conditions noted are these: cited from earlier work.
Experiment [4] has as its target T2, myeloma protein J558 (Mus musculus, UniProt P01724+P01757). As to the kind of experiment: Quantitative precipitin inhibition assay, J558. It counts as binding, BALB/c mouse. Particulars: at 0.99 µmol; 15 µg dextran B1498S.
In experiment [5] the test system is serum 895 (anti-panosyl-α(1→4)DGlc). The experiment is described as follows: Quantitative precipitin assay with antiserum 895. It counts as binding, Rabbit. The conditions noted are these: 80 µl undiluted serum, total vol 400 µl.
Experiment [6] has as its target T2, myeloma protein J558. The experiment is described as follows: Quantitative precipitin assay with J558. In kind it is binding, BALB/c mouse. Particulars: Table I; total vol 400 µl.
The test system of experiment [7] is myeloma protein CAL20 TEPC1035. As to the kind of experiment: Quantitative precipitin assay with CAL20 TEPC1035. In kind it is binding, murine. Particulars: Table I; 6.5 µg antibody N, total vol 400 µl.
The mark [8] stands for this setting: inhibition of CAL20 TEPC1035-dextran B1498S precipitation.

T2 sequence (P01757 whole entry): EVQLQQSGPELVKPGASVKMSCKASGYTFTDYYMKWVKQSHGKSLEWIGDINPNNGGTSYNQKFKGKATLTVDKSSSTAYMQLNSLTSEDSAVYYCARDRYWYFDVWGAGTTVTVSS
T2 sequence (P01724 20-129): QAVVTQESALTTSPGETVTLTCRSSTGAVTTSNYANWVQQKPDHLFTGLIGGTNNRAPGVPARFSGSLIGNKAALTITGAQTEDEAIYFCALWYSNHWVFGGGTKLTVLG
T1 sequence (P01756 whole entry): as the sequence (P01757 whole entry) above, with R100Y, Y101D counted along it
T1 sequence (P01724 20-129): as the sequence (P01724 20-129) above

Turning to 34-a-u-glucosylisomaltohexaose [I/5], the inhibition of precipitation in experiment [1] (at 0.15 µmol) was found to be 47%.
As to `OC[C@H]1O[C@H](O[C@H]2[C@H](O)[C@@H](O)C(O)O[C@@H]2CO)[C@H](O)[C@@H](O)[C@@H]1O` (mixture of isomers) [Maltose, maltose], the Relative potency in experiment [1] worked out at 1.0. The “activity relative to methyl α-D-glucoside” value in experiment [1] (setting [8]) is “three times”.
As for `CC(=O)OC[C@@H](O)[C@@H](O)[C@H](O)[C@@H](O)C=O` [6-O-acetyl-glucose, 6-O-acetyl-glucose], the Relative potency in experiment [1] was found to be 0.14.
Same read-out and setting: the result for `O=C[C@H](O)[C@@H](O)[C@H](O[C@@H]1O[C@H](CO)[C@@H](O)[C@H](O)[C@H]1O)[C@H](O)CO` [Cellobiose, DGlcβ(1→4)DGlc] reads 0.24.
On to `OC[C@H]1O[C@H](O[C@H]2[C@@H](OC[C@H]3OC(O)[C@H](O)[C@@H](O)[C@@H]3O)O[C@H](CO)[C@@H](O)[C@@H]2O)[C@H](O)[C@@H](O)[C@@H]1O` (stereo partly shown) [DGlcα(1→2)DGlcα(1→6)DGlc], for which the inhibition of precipitation in experiment [1] (at 0.36 µmol) is 15%.
In the case of `OC[C@H]1O[C@H](O[C@@H]2[C@@H](O)[C@@H](OC[C@H]3OC(O)[C@H](O)[C@@H](O)[C@@H]3O)O[C@H](CO)[C@H]2O)[C@H](O)[C@@H](O)[C@@H]1O` (stereo partly shown) [DGlcα(1→3)DGlcα(1→6)DGlc], the inhibition of precipitation in experiment [1] (at 0.16 µmol) is listed as 40%.
Turning to `OC[C@H]1O[C@H](OC[C@H]2O[C@H](O[C@H]3[C@H](O)[C@@H](CO)OC(O)[C@@H]3O)[C@H](O)[C@@H](O)[C@@H]2O)[C@H](O)[C@@H](O)[C@@H]1O` (stereo partly shown) [DGlcα(1→6)DGlcα(1→3)DGlc], in experiment [1], the Relative potency was 1.6.
`OC[C@H]1O[C@H](OC[C@H]2O[C@H](O[C@H]3[C@H](O)[C@@H](O)[C@@H](O[C@H]4[C@H](O)[C@@H](O)C(O)O[C@@H]4CO)O[C@@H]3CO)[C@H](O)[C@@H](O)[C@@H]2O)[C@H](O)[C@@H](O)[C@@H]1O` (stereo partly shown) [DGlcα(1→6)DGlcα(1→4)DGlcα(1→4)DGlc] showed a Relative potency in experiment [1] of 2.4. Further, the “times more potent than the trisaccharide DGlcα(1→6)DGlcα(1→3)DGlc” value in experiment [1] (setting [8]) is listed as 1.5 times.
Take `OC[C@H]1OC(O)[C@H](O)[C@@H](O)[C@@H]1O` (stereo partly shown) [Glucose]: the inhibition of precipitation in experiment [1] (at 0.2 µmol) and in experiment [1] (at 0.92 µmol (Table II)) was 22% in each case.
In experiment [1], `OC[C@H]1O[C@H](OC[C@H]2O[C@H](OC[C@H]3O[C@H](OC[C@H]4O[C@H](OC[C@H]5OC(O)[C@H](O)[C@@H](O)[C@@H]5O)[C@H](O)[C@@H](O)[C@@H]4O)[C@H](O)[C@@H](O)[C@@H]3O[C@H]3O[C@H](CO)[C@@H](O)[C@H](O)[C@H]3O)[C@H](O)[C@@H](O)[C@@H]2O)[C@H](O)[C@@H](O)[C@@H]1O` (stereo partly shown) [II/3, 43-a-v-glucosylisomaltopen taose] showed a Relative potency of 0.8.
As for `OC[C@H]1O[C@H](OC[C@H]2O[C@H](OC[C@H]3O[C@H](OC[C@H]4O[C@H](OC[C@H]5O[C@H](OC[C@H]6O[C@H](OC[C@H]7OC(O)[C@H](O)[C@@H](O)[C@@H]7O)[C@H](O)[C@@H](O)[C@@H]6O)[C@H](O)[C@@H](O)[C@@H]5O)[C@H](O)[C@@H](O)[C@@H]4O)[C@H](O)[C@@H](O)[C@@H]3O)[C@H](O)[C@@H](O)[C@@H]2O)[C@H](O)[C@@H](O)[C@@H]1O` (stereo partly shown) [Isomaltoheptaose, isomaltoheptaose], in experiment [1] (at 0.4 µmol), the inhibition of precipitation was 35%.
For `OC[C@H]1O[C@H](OC[C@H]2O[C@H](OC[C@H]3O[C@H](OC[C@H]4O[C@H](OC[C@H]5O[C@H](OC[C@H]6OC(O)[C@H](O)[C@@H](O)[C@@H]6O)[C@H](O)[C@@H](O)[C@@H]5O)[C@H](O)[C@@H](O)[C@@H]4O)[C@H](O)[C@@H](O)[C@@H]3O)[C@H](O)[C@@H](O)[C@@H]2O)[C@H](O)[C@@H](O)[C@@H]1O` (stereo partly shown) [Isomaltohexaose, isomaltohexaose], the inhibition of precipitation in experiment [1] (at 0.41 µmol) amounted to 20%.
With `OC[C@H]1O[C@H](OC[C@H]2O[C@H](OC[C@H]3O[C@H](OC[C@H]4O[C@H](OC[C@H]5OC(O)[C@H](O)[C@@H](O)[C@@H]5O)[C@H](O)[C@@H](O)[C@@H]4O)[C@H](O)[C@@H](O)[C@@H]3O)[C@H](O)[C@@H](O)[C@@H]2O)[C@H](O)[C@@H](O)[C@@H]1O` (stereo partly shown) [Isomaltopentaose, isomaltopentaose], the inhibition of precipitation in experiment [1] (at 0.5 µmol) and in experiment [1] (at 0.59 µmol (Table II)) was 44% each time.
In turn, `OC[C@H]1O[C@H](OC[C@H]2OC(O)[C@H](O)[C@@H](O)[C@@H]2O)[C@H](O)[C@@H](O)[C@@H]1O` (stereo partly shown) [Isomaltose, isomaltose] showed a Relative potency in experiment [1] of 0.19. The “activity relative to methyl α-D-glucoside” value in experiment [1] (setting [8]) is listed as “one-half”.
Molecule `OC[C@H]1O[C@H](OC[C@H]2O[C@H](OC[C@H]3OC(O)[C@H](O)[C@@H](O)[C@@H]3O)[C@H](O)[C@@H](O)[C@@H]2O)[C@H](O)[C@@H](O)[C@@H]1O` (stereo partly shown) [Isomaltotriose, isomaltotriose] gave a Relative potency in experiment [1] of 0.20.
In the case of `OC[C@H]1O[C@H](O[C@H]2[C@H](O)[C@@H](O)[C@@H](OC[C@H]3OC(O)[C@H](O)[C@@H](O)[C@@H]3O)O[C@@H]2CO)[C@H](O)[C@@H](O)[C@@H]1O` (stereo partly shown) [Isopanose, DGlcα(1→4)DGlcα(1→6)DGlc], the Relative potency in experiment [1] is reported as 0.35.
Molecule `OC[C@H]1O[C@H](O[C@H]2[C@H](O)[C@@H](O)[C@@H](OC[C@H]3O[C@H](O[C@H]4[C@H](O)[C@@H](O)[C@@H](O[C@H]5[C@H](O)[C@@H](O)[C@@H](OC[C@H]6OC(O)[C@H](O)[C@@H](O)[C@@H]6O)O[C@@H]5CO)O[C@@H]4CO)[C@H](O)[C@@H](O)[C@@H]3O)O[C@@H]2CO)[C@H](O)[C@@H](O)[C@@H]1O` (stereo partly shown) [Isopanosylα(1→4)isopanose, DGlcα(1→4)DGlcα(1→6)DGlcα(1→4)DGlcα(1→4)DGlcα(1→6)DGlc] returned a Relative potency in experiment [1] of 1.0. Also, in experiment [1] (setting [8]), the “times more potent than isopanose” value is 2.85 times.
`OC[C@H]1O[C@H](O[C@H]2C(O)O[C@H](CO)[C@@H](O)[C@@H]2O)[C@H](O)[C@@H](O)[C@@H]1O` (stereo partly shown) [Kojibiose, DGlcα(1→2)DGlc] showed an inhibition of precipitation in experiment [1] (at 0.98 µmol) of 20%.
Molecule `OC[C@H]1O[C@H](O[C@H]2[C@H](O)[C@@H](O)[C@@H](O[C@H]3[C@H](O)[C@@H](O)[C@@H](O[C@H]4[C@H](O)[C@@H](O)C(O)O[C@@H]4CO)O[C@@H]3CO)O[C@@H]2CO)[C@H](O)[C@@H](O)[C@@H]1O` (stereo partly shown) [Maltotetraose, maltotetraose] returned a Relative potency in experiment [1] of 1.0.
Still for that read-out and setting: the result for `OC[C@H]1O[C@H](O[C@@H]2[C@@H](O)[C@@H](O[C@@H]3[C@@H](O)[C@@H](O[C@@H]4[C@@H](O)[C@@H](O[C@H]5[C@H](O)[C@@H](CO)OC(O)[C@@H]5O)O[C@H](CO)[C@H]4O)O[C@H](CO)[C@H]3O)O[C@H](CO)[C@H]2O)[C@H](O)[C@@H](O)[C@@H]1O` (stereo partly shown) [Nigeropentaose, nigeropentaose] reads 0.29.
Turning to `OC[C@H]1O[C@H](O[C@H]2[C@H](O)[C@@H](CO)OC(O)[C@@H]2O)[C@H](O)[C@@H](O)[C@@H]1O` (stereo partly shown) [Nigerose, nigerose], the “inhibition of precipitation of MOPC104E” value at myeloma protein MOPC104E [2] (at 0.9 µmol) stood at 25%. In addition, in experiment [1], the Relative potency stood at 0.35. Further, the “activity relative to methyl α-D-glucoside” value in experiment [1] (setting [8]) was “equally”.
As to `OC[C@H]1O[C@H](O[C@@H]2[C@@H](O)[C@@H](O[C@@H]3[C@@H](O)[C@@H](O[C@H]4[C@H](O)[C@@H](CO)OC(O)[C@@H]4O)O[C@H](CO)[C@H]3O)O[C@H](CO)[C@H]2O)[C@H](O)[C@@H](O)[C@@H]1O` (stereo partly shown) [Nigerotetraose, nigerotetraose], the “inhibition of precipitation of MOPC104E” value at myeloma protein MOPC104E [2] (at 0.82 µmol) was found to be 75%. In experiment [1], this molecule showed a Relative potency of 0.29.
`OC[C@H]1O[C@H](O[C@@H]2[C@@H](O)[C@@H](O[C@H]3[C@H](O)[C@@H](CO)OC(O)[C@@H]3O)O[C@H](CO)[C@H]2O)[C@H](O)[C@@H](O)[C@@H]1O` (stereo partly shown) [Nigerotriose, nigerotriose] showed a Relative potency in experiment [1] of 0.29.
Regarding `OC[C@H]1O[C@H](OC[C@H]2O[C@H](O[C@H]3[C@H](O)[C@@H](O)C(O)O[C@@H]3CO)[C@H](O)[C@@H](O)[C@@H]2O)[C@H](O)[C@@H](O)[C@@H]1O` (stereo partly shown) [Panose], at myeloma protein MOPC104E [2] (up to 0.99 µmol), the “inhibition of precipitation of MOPC104E” value was “no inhibition”. Further, in the experiment with myeloma protein UPC102, the “inhibition of precipitation of UPC102” value turned out to be 15%. In addition, in experiment [1], the Relative potency was 8.0. Further, in experiment [1] (setting [8]), the “times more active than kojibiose” value is greater than 42 times; the “times more potent than the tetrasaccharide DGlcα(1→6)DGlcα(1→4)DGlcα(1→4)DGlc” value is 3.3 times and 2.5 times. Moreover, the “relative potency at 50% inhibition relative to nigerose as 1.0 on a molar basis” value on myeloma protein MOPC104E [3] was 0.105. For the same molecule, at myeloma protein J558 [4], the “inhibition of precipitation of J558” value is listed as 15%.
Take `OC[C@H]1O[C@H](O[C@H]2O[C@H](CO)[C@@H](O)[C@H](O)[C@H]2O)[C@H](O)[C@@H](O)[C@@H]1O` [Trehalose, DGlcα(1→1)DGlc]: the inhibition of precipitation entry in experiment [1] (at 1.1 µmol) is “No inhibition”.
Turning to Gentiobiose, the Relative potency in experiment [1] is 0.12.
Take Glycogen: the “Precipitation with serum 895” value in experiment [5] was “precipitated poorly”. For the same molecule, the “Precipitating power with J558” value on myeloma protein J558 [6] is given as “-”. Moreover, in experiment [7], the “Precipitating power with CAL20 TEPC1035” value was “-”.
For the molecule Pullulan, the “Precipitation with serum 895” value in experiment [5] is “precipitated poorly”. Also, at myeloma protein J558 [6], the “Precipitating power with J558” value is “-”. Also, in experiment [7], the “Precipitating power with CAL20 TEPC1035” value is listed as “-”.
In experiment [1], maltoheptaose gave a Relative potency of 2.4.
Still for that read-out and setting: with maltohexaose the figure was 2.4; with maltopentaose, 1.41.
Molecule maltotriose came in with a Relative potency in experiment [1] of 1.0.
Regarding nigerohexa-heptaose, the Relative potency in experiment [1] was found to be 0.33.
